The source made the active and inactive calls. The rule behind the calls is not given here.
Tests used:
[1] = Drug uptake in male Sprague-Dawley rat Dorsal skin assessed as retention rat at 1 mg/ml, TOP measured after 30 mins by LC-MS/MS analysis; type: ADME, tissue-based, Zone of skin; conditions: in vivo, topical_or_ocular, 0.5 h
[2] = target: Protein cereblon/Androgen receptor (Homo sapiens, UniProt P10275+Q96SW2); assay: PROTAC activity at CRBN/AR in human dermal papilla cell assessed as induction of AR degradation measured after 24 to 72 hrs by Western blot analysis; type: cell-based
Protein cereblon/Androgen receptor, sequence (P10275 whole entry): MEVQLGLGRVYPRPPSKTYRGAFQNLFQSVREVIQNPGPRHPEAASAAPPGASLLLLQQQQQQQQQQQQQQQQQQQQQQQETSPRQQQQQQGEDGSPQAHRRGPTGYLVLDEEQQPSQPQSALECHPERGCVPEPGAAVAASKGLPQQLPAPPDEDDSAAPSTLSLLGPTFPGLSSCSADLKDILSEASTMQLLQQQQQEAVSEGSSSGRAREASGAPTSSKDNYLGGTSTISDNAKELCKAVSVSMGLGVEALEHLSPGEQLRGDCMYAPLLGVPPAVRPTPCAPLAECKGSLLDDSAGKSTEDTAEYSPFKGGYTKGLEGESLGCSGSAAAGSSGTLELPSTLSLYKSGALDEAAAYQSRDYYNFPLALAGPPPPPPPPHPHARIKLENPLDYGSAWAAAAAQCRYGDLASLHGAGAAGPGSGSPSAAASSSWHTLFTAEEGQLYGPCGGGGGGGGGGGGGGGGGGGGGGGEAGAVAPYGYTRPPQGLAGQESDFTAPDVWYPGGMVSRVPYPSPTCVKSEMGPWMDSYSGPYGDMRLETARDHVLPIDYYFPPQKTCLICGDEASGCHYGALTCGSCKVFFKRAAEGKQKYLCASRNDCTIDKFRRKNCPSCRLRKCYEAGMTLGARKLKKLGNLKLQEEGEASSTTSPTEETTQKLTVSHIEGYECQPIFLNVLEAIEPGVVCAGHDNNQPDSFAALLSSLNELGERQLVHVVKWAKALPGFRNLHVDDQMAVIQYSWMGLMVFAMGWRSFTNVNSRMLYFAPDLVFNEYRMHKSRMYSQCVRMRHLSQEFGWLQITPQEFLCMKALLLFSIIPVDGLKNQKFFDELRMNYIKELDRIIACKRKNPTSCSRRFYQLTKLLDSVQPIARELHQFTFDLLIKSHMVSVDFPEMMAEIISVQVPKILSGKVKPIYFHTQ
Protein cereblon/Androgen receptor, sequence (Q96SW2 whole entry): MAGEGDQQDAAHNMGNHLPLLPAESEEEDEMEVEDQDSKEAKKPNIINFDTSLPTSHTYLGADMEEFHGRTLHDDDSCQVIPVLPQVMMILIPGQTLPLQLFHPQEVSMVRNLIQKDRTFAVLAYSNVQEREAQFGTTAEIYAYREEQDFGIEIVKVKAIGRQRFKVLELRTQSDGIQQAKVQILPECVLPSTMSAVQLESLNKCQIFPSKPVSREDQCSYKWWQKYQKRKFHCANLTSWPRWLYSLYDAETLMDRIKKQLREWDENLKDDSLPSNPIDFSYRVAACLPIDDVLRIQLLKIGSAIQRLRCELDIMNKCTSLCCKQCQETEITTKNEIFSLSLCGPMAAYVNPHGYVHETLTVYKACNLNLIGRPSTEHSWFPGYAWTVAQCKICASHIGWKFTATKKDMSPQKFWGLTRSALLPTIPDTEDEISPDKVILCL

[3] = tested on: Human dermal papilla cell; assay: Downregulation of AR protein expression in human dermal papilla cells at 1 uM preincubated with testosterone for 24 hrs followed by compound addition and measured after 48 hrs by Western blot analysis; type: functional, cell-based
[4] = tested on: Human dermal papilla cell; assay: Upregulation of beta-catenin level in human dermal papilla cells at 1 uM preincubated with testosterone for 24 hrs followed by compound addition and measured after 48 hrs by Western blot analysis; type: functional, cell-based
[5] = tested on: Human dermal papilla cell; assay: Downregulation of TGF-beta1 expression level in human dermal papilla cells at 1 uM preincubated with testosterone for 24 hrs followed by compound addition and measured after 48 hrs by Western blot analysis; type: functional, cell-based
[6] = Inhibition of TGF-beta1 release in human dermal papilla cells assessed as TGF-beta1 concentration at 1 uM preincubated with testosterone for 24 hrs followed by compound addition and measured after 48 hrs by ELISA; type: functional, Human dermal papilla cell
[7] = tested on: Mus musculus; assay: Hair regeneration efficacy in testosterone induced male C57BL/6 mouse androgenetic alopecia model at 5 %, TOP administered once daily for 14 days and measured after 21 days with co-administration of 0.2% testosterone for 28 days by photographic analysis; type: functional, organism-based; conditions: time 21.0 day
[8] = tested on: Mus musculus; assay: Hair regeneration efficacy in testosterone induced male C57BL/6 mouse androgenetic alopecia model earlier pigmentation at 5 %, TOP administered once daily for 14 days and measured after 21 days with co-administration of 0.2% testosterone for 28 days by photographic analysis; type: functional, organism-based; conditions: time 14.0 day
[9] = tested on: Mus musculus; assay: In vivo induction of AR degradation in testosterone induced male C57BL/6 mouse androgenetic alopecia model assessed as decrease in AR protein level in skin at […] TOP administered once daily for 14 days with co-administration of 0.2% testosterone for 28 days by Western blot analysis; type: functional, organism-based; conditions: time 14.0 day
[10] = tested on: Mus musculus; assay: Hair regeneration efficacy in testosterone induced male C57BL/6 mouse androgenetic alopecia model assessed as generation of thick hair with intact scales at 5 %, TOP administered once daily for 14 days with co-administration of 0.2% testosterone and measured after 28 days by SEM analysis; type: functional, organism-based; conditions: time 28.0 day
[11] = tested on: Mus musculus; assay: Hair regeneration efficacy in testosterone induced male C57BL/6 mouse androgenetic alopecia model assessed as well formed stratum corneum in hair at 5 %, TOP administered once daily for 14 days with co-administration of 0.2% testosterone and measured after 28 days by SEM analysis; type: functional, organism-based; conditions: time 28.0 day
[12] = tested on: Mus musculus; assay: Hair regeneration efficacy in testosterone induced male C57BL/6 mouse androgenetic alopecia model assessed as entry of hair follicles to anagen phase by measuring high density of enlarged hair bulbs in subcutaneous tissue at 5 %, TOP administered once daily for 14 days with co-administration of 0.2% testosterone for 28 days by H and E staining based analysis; type: functional, organism-based; conditions: time 14.0 day
[13] = tested on: Mus musculus; assay: Hair regeneration efficacy in testosterone induced male C57BL/6 mouse androgenetic alopecia model assessed as increase in hair cycle score at 5 %, TOP administered once daily for 14 days with co-administration of 0.2% testosterone for 28 days; type: functional, organism-based; conditions: time 14.0 day
[14] = tested on: Mus musculus; assay: Hair regeneration efficacy in testosterone induced male C57BL/6 mouse androgenetic alopecia model assessed as increase in Ki67 expression in skin at 5 % TOP administered once daily for 14 days with co-administration of 0.2% testosterone for 28 days by DAPI staining based immunofluorescence analysis; type: functional, organism-based; conditions: time 14.0 day

Row | SMILES | Drug uptake [1] | DC50 [2] | other results
1 | O=C1CCC(N2Cc3cc(C#CCN4CCN(c5ccc(C(F)(F)F)cc5)CC4)ccc3C2=O)C(=O)N1 (stereo not given) | 2.48% | – | –
2 | N#Cc1ccc(O[C@H]2CC[C@H](NC(=O)c3ccc(N4CCC(CN5CCN(c6ccc7c(c6)C(=O)N(C6CCC(=O)NC6=O)C7=O)CC5)CC4)cc3)CC2)cc1Cl (stereo not given in full) | 0.62% | 0.207 µM | –
3 | O=C1CCC(N2Cc3cc(OCC#CCN4CCN(CC#Cc5ccc(C(F)(F)F)cc5)CC4)ccc3C2=O)C(=O)N1 (stereo not given) | 5.41% | – | –
4 | Nc1cc(N2CCCCC2)nc(N)[n+]1[O-] [MINOXIDIL] | – | – | Activity [3]: inactive; Activity [4]: Active; Activity [5]: Active; Activity [6]: 952.22 pg/mL; Activity [7]: Active; Activity [8]: Active; Activity [9]: inactive; Activity [10]: Active; Activity [11]: Active; Activity [12]: Active; Activity [13]: Active; Activity [14]: Active
5 | O=C1CCC(N2C(=O)c3cccc(NC4CCN(CC5CCN(c6ccc(C(F)(F)F)cc6)CC5)CC4)c3C2=O)C(=O)N1 (stereo not given) | 4.34% | – | –
6 | O=C1CCC(N2C(=O)c3ccc(N4CC(CN5CCC(c6ccc(C(F)(F)F)cc6)CC5)C4)cc3C2=O)C(=O)N1 (stereo not given) | 8.45% | – | –
7 | N#Cc1ccc(O[C@H]2CC[C@H](NC(=O)c3ccc(C4CCN(CC5CN(c6ccc(C(=O)NC7CCC(=O)NC7=O)cc6)C5)CC4)cc3)CC2)cc1Cl (stereo not given in full) | 1.23% | 0.0709 µM | –
8 | O=C1CCC(N2C(=O)c3ccc(N4CCC(CN5CCN(c6ccc(C(F)(F)F)cc6)CC5)C4)cc3C2=O)C(=O)N1 (stereo not given) | 0.68% | – | –
9 | O=C1CCC(NC(=O)c2ccc(N3CCN(CCCCc4ccc(F)cc4)CC3)cc2)C(=O)N1 (stereo not given) | 6.93% | – | –
10 | O=C1CCC(N2C(=O)c3cccc(N4CCC(CN5CCN(c6ccc(C(F)(F)F)cc6)CC5)C4)c3C2=O)C(=O)N1 (stereo not given) | 0.96% | – | –
11 | O=C1CCC(NC(=O)c2ccc(N3CCN(CCC4CCN(c5ccc(F)cc5)CC4)CC3)cc2)C(=O)N1 (stereo not given) | 3.92% | – | –
12 | O=C1CCC(N2C(=O)c3ccc(N4CCCC(CN5CCC(c6ccc(C(F)(F)F)cc6)CC5)C4)cc3C2=O)C(=O)N1 (stereo not given) | 5.75% | – | –
13 | O=C1CCC(N2C(=O)c3cc(F)c(N4CC(CN5CCC(c6ccc(C(F)(F)F)cc6)CC5)C4)cc3C2=O)C(=O)N1 (stereo not given) | 2.22% | – | –
14 | CNC(=O)c1ccc(N2C(=S)N(c3ccc(C#N)c(C(F)(F)F)c3)C(=O)C2(C)C)cc1F [ENZALUTAMIDE] | – | – | Activity [3]: inactive; Activity [4]: Active; Activity [5]: Active; Activity [6]: 1195 pg/mL
15 | O=C1CCC(NC(=O)c2ccc(N3CCN(CC4CCN(c5ccc(F)cc5)CC4)CC3)cc2)C(=O)N1 (stereo not given) | 4.99% | – | –
16 | N#Cc1ccc(O[C@H]2CC[C@H](NC(=O)c3ccc(N4CCN(CC5CCN(c6ccc(C(=O)NC7CCC(=O)NC7=O)cc6)C5)CC4)cc3)CC2)cc1Cl (stereo not given in full) | 1.86% | > 1 µM | –
17 | N#Cc1ccc(O[C@H]2CC[C@H](NC(=O)c3ccc(N4CCN(C5CN(c6ccc7c(c6)C(=O)N(C6CCC(=O)NC6=O)C7=O)C5)CC4)cc3)CC2)cc1Cl (stereo not given in full) | 1.41% | > 1 µM | –
18 | N#Cc1ccc(O[C@H]2CC[C@H](NC(=O)c3ccc(N4CCN(CC5CCN(c6ccc7c(c6)C(=O)N(C6CCC(=O)NC6=O)C7=O)C5)CC4)cc3)CC2)cc1Cl (stereo not given in full) | 0.74% | > 1 µM | –
19 | O=C1CCC(N2C(=O)c3ccc(N4CC(N5CCN(c6ccc(C(F)(F)F)cc6)CC5)C4)cc3C2=O)C(=O)N1 (stereo not given) | 5.84% | – | –
20 | N#Cc1ccc(O[C@H]2CC[C@H](NC(=O)c3ccc(CCCCN4CCN(c5ccc(C(=O)NC6CCC(=O)NC6=O)cc5)CC4)cc3)CC2)cc1Cl (stereo not given in full) | 1.49% | > 1 µM | –
21 | N#Cc1ccc(O[C@H]2CC[C@H](NC(=O)c3ccc(N4CCC(N5CCN(c6ccc(C(=O)NC7CCC(=O)NC7=O)cc6)CC5)CC4)cc3)CC2)cc1Cl (stereo not given in full) | 1.31% | 0.104 µM | –
22 | N#Cc1ccc(O[C@H]2CC[C@H](NC(=O)c3ccc(C4CCN(CC5CCCN(c6ccc7c(c6)C(=O)N(C6CCC(=O)NC6=O)C7=O)C5)CC4)cc3)CC2)cc1Cl (stereo not given in full) | 0.58% | > 1 µM | –
23 | N#Cc1ccc(O[C@H]2CC[C@H](NC(=O)c3ccc(C4CCN(CC5CN(c6ccc7c(c6)C(=O)N(C6CCC(=O)NC6=O)C7=O)C5)CC4)cc3)CC2)cc1Cl (stereo not given in full) | 0.6% | > 1 µM | –
24 | O=C1CCC(N2Cc3c(OCC#CCN4CCN(CC#Cc5ccc(C(F)(F)F)cc5)CC4)cccc3C2=O)C(=O)N1 (stereo not given) | 1.91% | – | –
25 | O=C1CCC(N2C(=O)c3ccc(N4CCN(CC5CCN(c6ccc(C(F)(F)F)cc6)CC5)CC4)cc3C2=O)C(=O)N1 (stereo not given) | 8.73% | – | –
26 | N#Cc1ccc(O[C@H]2CC[C@H](NC(=O)c3ccc(N4CCN(CC5CCN(c6ccc7c(c6)C(=O)N(C6CCC(=O)NC6=O)C7=O)CC5)CC4)cc3)CC2)cc1Cl (stereo not given in full) | 0.69% | – | –
27 | O=C1CCC(NC(=O)c2ccc(N3CCN(C4CCN(c5ccc(F)cc5)CC4)CC3)cc2)C(=O)N1 (stereo not given) | 9.12% | – | –
28 | N#Cc1ccc(O[C@H]2CC[C@H](NC(=O)c3ccc(N4CCC(CCN5CCN(c6ccc(C(=O)NC7CCC(=O)NC7=O)cc6)CC5)CC4)cc3)CC2)cc1Cl (stereo not given in full) | 1% | > 1 µM | –
29 | O=C1CCC(N2C(=O)c3ccc(N4CCC(CN5CCC(c6ccc(C(F)(F)F)cc6)CC5)C4)cc3C2=O)C(=O)N1 (stereo not given) | 1.94% | – | –
30 | N#Cc1ccc(O[C@H]2CC[C@H](NC(=O)c3ccc(N4CCC(CN5CCN(c6ccc(C(=O)NC7CCC(=O)NC7=O)cc6)CC5)CC4)cc3)CC2)cc1Cl (stereo not given in full) | 0.81% | > 1 µM | –
